Assay [1] addresses class C beta-lactamase of Serratia marcescens (Serratia marcescens, UniProt P18539). The following applies: cited from earlier work; for kcat: Serratia marcescens.
For assay [2], the target named is class C beta-lactamase of Escherichia coli K12 (Escherichia coli, UniProt P00811). The following applies: cited from earlier work.
The target in assay [3] is class C beta-lactamase of Citrobacter freundii (Citrobacter freundii, UniProt P05193). The following applies: cited from earlier work.
class C beta-lactamase of Citrobacter freundii, sequence (P05193 21-381): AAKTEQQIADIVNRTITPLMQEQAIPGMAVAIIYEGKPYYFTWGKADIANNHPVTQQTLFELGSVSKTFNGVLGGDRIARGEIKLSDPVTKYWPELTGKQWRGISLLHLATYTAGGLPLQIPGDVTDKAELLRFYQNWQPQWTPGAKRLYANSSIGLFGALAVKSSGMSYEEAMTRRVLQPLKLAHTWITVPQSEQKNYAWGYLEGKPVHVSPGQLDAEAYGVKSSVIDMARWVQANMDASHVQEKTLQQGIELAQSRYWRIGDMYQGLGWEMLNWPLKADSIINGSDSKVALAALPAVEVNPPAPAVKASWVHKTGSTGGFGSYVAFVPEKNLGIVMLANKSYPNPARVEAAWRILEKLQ
The subject of assay [4] is class C beta-lactamase of Enterobacter cloacae 908R. As to conditions: cited from earlier work.
For assay [5], the target named is class C beta-lactamase of Enterobacter cloacae P99 (Enterobacter cloacae, UniProt P05364). As to conditions: cited from earlier work.
class C beta-lactamase of Enterobacter cloacae P99, sequence (P05364 21-381): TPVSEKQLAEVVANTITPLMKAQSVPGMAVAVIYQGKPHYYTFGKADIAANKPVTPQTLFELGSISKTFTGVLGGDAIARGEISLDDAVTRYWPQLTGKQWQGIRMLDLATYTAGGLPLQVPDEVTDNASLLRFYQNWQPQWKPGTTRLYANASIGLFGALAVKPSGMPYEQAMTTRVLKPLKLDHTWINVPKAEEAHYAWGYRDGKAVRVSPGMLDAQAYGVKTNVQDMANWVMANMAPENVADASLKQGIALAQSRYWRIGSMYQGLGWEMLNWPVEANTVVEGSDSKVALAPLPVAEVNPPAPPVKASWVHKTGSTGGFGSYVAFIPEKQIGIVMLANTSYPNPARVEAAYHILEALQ
Assay [6] deals with class C beta-lactamase of Pseudomonas aeruginosa (Pseudomonas aeruginosa, UniProt P24735). The following applies: cited from earlier work; for kcat: Pseudomonas aeruginosa.
class C beta-lactamase of Pseudomonas aeruginosa, sequence (P24735 27-397): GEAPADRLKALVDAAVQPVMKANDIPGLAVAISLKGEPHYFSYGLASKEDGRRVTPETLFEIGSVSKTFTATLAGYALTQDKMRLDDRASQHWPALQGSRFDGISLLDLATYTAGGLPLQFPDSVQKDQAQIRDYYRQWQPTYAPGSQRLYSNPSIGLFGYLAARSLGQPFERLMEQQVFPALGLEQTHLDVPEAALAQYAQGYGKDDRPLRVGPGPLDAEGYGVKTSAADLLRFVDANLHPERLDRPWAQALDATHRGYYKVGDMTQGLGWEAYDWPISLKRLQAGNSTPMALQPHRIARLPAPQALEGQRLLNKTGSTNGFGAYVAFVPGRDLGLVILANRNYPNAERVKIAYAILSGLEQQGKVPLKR
Assay [7] concerns the target T1, P99 beta-lactamase (Enterobacter cloacae, UniProt P05364). The format is biochemical.
Target sequence in this assay (P05364 21-381): as the sequence (P05364 21-381) above
Assay [8] concerns the target T1, P99 beta-lactamase. Kind of assay: Kinetic assay, reporter substrate competition (colorimetric assay). The format is biochemical. On the set-up: made in house; host or cells: E. coli BL21(DE3), pET28-P99. The text has this:
(§1) The colorimetric assay used the competition between a reporter substrate and a beta-lactam antibiotic towards the catalytic site of the class C beta-lactamase. In the absence of beta-lactam antibiotic, the class C beta-lactamase P99 hydrolyzed rapidly the reporter substrate and this reaction produced a deep red (nitrocefin) or yellow (CENTA) coloration.
(§2) In the presence of beta-lactam antibiotic, P99 catalytic activity was less available and thus less able to hydrolyze the reporter substrate. Accordingly, the higher the concentration of beta-lactam antibiotic, the lower the coloration of the medium. In this enzymatic competitive kinetic assay, the UV-Visible absorbance was inversely proportional to the concentration of beta-lactam antibiotic.
(§3) Report substrate: A stock solution of reporter substrate consisting of 10 mM of CENTA in HEPES (4-(2-hydroxyethyl)-1-piperazineethanesulfonic acid) pH 7.8 (20 mM)/NaCl (200 mM) buffer was diluted 10 times in HEPES pH 7.8 (20 mM)/NaCl (200 mM) buffer.
(§4) Solution of enzyme: in a spectrophotometer cell, containing HEPES/NaCl buffer (400 μL) and CENTA (100 μL, 100 μM); 20 μL of P99 enzyme solution was added. The concentration of P99 enzyme was variable in function of the preparation and ranged between 0.01 mg/ml to 100 mg/ml. The absorbance variation was measured at 405 nm during 1 min. The enzyme solution used in the experiment was then diluted until the absorbance variation was comprised between 35 and 45 mUAbs/min cm^−1. This diluted solution was further used in this example.
(§5) 8 standard solutions per antibiotic tested were deposited on a 96-well microplate (40 μL).
(§6) The absorbance was measured using a microplate reader, with each column being measured separately. The program comprised following the kinetic during 4 min, with 1 measure at 405 nm every 10 seconds (24 measures). In each well and simultaneously, a mixture of 45 μl HEPES/NaCl buffer and 5 μl P99 solution was added. The same mixture was used for the 8 wells of each column, and thus prepared in advance for distribution with a multi-channel pipette. After 1 min incubation at 20° C., the reading was started, and KC Junior™ software (BioTek Instruments, Winooski, Vt.) was used to calculate the slope of each reaction kinetic. The experiments were made in triplicate and reproduced over 5 different days.
(§7) Kinetic assays with the P99 beta-lactamase and with P99A266C beta-lactamase were performed in order to test and compare the enzyme activities.
Target sequence in this assay (P05364 22-380, added parts left off): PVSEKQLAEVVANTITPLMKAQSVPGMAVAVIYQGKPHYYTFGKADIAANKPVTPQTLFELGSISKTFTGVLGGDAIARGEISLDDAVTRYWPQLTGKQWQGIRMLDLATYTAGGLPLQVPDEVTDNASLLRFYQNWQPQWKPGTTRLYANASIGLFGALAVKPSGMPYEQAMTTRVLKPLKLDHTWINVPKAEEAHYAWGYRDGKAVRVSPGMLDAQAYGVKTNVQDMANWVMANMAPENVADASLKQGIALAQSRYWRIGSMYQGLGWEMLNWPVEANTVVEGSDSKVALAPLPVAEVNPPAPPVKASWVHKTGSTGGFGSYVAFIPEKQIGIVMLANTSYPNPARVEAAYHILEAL

The target of the next assay is T2, P99A266C beta-lactamase (Enterobacter cloacae, UniProt P05364, A266C).
T2 construct: made in house; host or cells: E. coli BL21(DE3), pET28 vector
T2 sequence (P05364 other isoform, or with tags, fused parts or gaps A266C): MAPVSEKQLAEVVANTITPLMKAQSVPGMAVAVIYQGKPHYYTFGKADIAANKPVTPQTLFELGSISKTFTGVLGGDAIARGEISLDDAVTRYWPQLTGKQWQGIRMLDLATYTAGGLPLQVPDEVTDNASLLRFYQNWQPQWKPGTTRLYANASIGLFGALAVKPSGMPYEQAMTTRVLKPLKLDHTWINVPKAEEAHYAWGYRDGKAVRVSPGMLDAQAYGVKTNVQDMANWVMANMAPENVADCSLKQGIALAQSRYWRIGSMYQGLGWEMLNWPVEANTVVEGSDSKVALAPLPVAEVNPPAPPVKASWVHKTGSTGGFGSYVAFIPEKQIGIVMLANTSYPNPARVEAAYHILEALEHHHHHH
The assay is described as above. Format: biochemical, Enterobacter cloacae P99.
Source text: as §1, §2, §3, §4, §5, §6, §7

The text below walks through data of US9689021B2, “Method for measuring beta-lactam antibiotics” (priority 2011, dated 2017).

Where two headings read alike, the source gives them in different places.

class C beta-lactamase of Escherichia coli K12, sequence (P00811 20-377): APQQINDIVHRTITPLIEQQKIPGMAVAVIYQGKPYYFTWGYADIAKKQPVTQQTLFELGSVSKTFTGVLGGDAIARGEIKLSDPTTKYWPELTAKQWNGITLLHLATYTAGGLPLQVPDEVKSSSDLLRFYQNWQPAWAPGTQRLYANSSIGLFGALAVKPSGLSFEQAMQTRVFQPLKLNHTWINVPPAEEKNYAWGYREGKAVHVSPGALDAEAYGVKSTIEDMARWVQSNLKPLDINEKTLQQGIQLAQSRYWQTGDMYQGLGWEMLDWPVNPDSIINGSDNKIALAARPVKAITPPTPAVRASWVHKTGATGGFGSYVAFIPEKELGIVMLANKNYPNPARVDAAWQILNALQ
class C beta-lactamase of Serratia marcescens, sequence (P18539 22-376): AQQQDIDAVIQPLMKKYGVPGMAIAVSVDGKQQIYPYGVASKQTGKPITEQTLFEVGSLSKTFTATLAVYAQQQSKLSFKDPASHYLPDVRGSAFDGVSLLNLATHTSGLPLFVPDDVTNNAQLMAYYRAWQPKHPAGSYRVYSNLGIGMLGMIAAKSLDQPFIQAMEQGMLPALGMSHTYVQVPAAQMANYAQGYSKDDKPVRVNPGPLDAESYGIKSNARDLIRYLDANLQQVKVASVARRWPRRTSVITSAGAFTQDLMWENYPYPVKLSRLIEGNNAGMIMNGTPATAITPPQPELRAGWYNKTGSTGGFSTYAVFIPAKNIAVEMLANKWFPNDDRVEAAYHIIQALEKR

As to `O=C(Cc1cccs1)N[C@@H]1C(=O)N2C(C(=O)[O-])=C(C[n+]3ccccc3)CS[C@H]12` [Cephaloridine], the kcat in [1] is 1100 s⁻¹; in [2], 130 s⁻¹; in assay [3], 700 s⁻¹; in [4], 600 s⁻¹; in assay [5], 700 s⁻¹; in assay [6], 110 s⁻¹. Moreover, the Km in assay [1] is 275 µM; in assay [4], 75 µM; in assay [6], 20 µM.

Take `CC1(C)S[C@@H]2[C@H](NC(=O)Cc3ccccc3)C(=O)N2[C@H]1C(=O)O` [Benzylpenicillin]: the catalytic constant (kcat) in assay [1] was 75 s⁻¹; in assay [2], 45 s⁻¹; in [3], 31 s⁻¹; in assay [4], 18 s⁻¹; in [5], 14 s⁻¹; in assay [6], 76 s⁻¹. The Km was 1.7 µM in assay [1]; 0.4 µM in assay [3]; 0.5 µM in assay [4]; 0.6 µM in assay [5]; 1.7 µM in [6].

Consider ampicillin-fluorescein [Ampi-flu], for which the “v0 (standard curve)” value on P99 beta-lactamase [7] (0.1 mg/L) was 0.2638 ΔAbs482/min; at P99 beta-lactamase [7] (0.5 mg/L), 0.2336 ΔAbs482/min; on P99 beta-lactamase [7] (1.5 mg/L) it was 0.169 ΔAbs482/min; on P99 beta-lactamase [7] (3 mg/L), 0.1064 ΔAbs482/min; at P99 beta-lactamase [7] (5 mg/L), 0.063 ΔAbs482/min; at P99 beta-lactamase [7] (7.5 mg/L) it was 0.0389 ΔAbs482/min. Further, on P99 beta-lactamase [7] (10 mg/L), the “v0 (standard curve)” value is reported as 0.025 ΔAbs482/min. The “v0/v0max (standard curve)” value on P99 beta-lactamase [7] (0.1 mg/L) was 98%; on P99 beta-lactamase [7] (0.5 mg/L), 87%; on P99 beta-lactamase [7] (1.5 mg/L) it was 63%; on P99 beta-lactamase [7] (3 mg/L) it was 39%; on P99 beta-lactamase [7] (5 mg/L), 23%; on P99 beta-lactamase [7] (7.5 mg/L), 14%. In addition, the “v0/v0max (standard curve)” value on P99 beta-lactamase [7] (10 mg/L) amounted to 9%. In addition, the “v0/v0max due to ampi-flu” value at P99 beta-lactamase [7] (sample 3, calculated from equation 3) was 59%.

As for `CCN1CCN(C(=O)N[C@@H](C(=O)N[C@@H]2C(=O)N3[C@@H]2SC(C)(C)[C@@H]3C(=O)O)c2ccccc2)C(=O)C1=O` [Piperacillin], the P99 rate on P99 beta-lactamase [8] (antibiotic 5 ug/ml) was 9.7 mUAbs/min; at P99 beta-lactamase [8] (antibiotic 10 ug/ml), 6.4 mUAbs/min; at P99 beta-lactamase [8] (antibiotic 20 ug/ml) it was 4.0 mUAbs/min; at P99 beta-lactamase [8] (antibiotic 40 ug/ml) it was 2.4 mUAbs/min. Also, the “Diff. (%) P99 vs P99A266C” value is on record as 16% at P99A266C beta-lactamase (antibiotic 5 ug/ml), 4% on P99A266C beta-lactamase (antibiotic 10 ug/ml), 6% at P99A266C beta-lactamase (antibiotic 20 ug/ml) and −4% at P99A266C beta-lactamase (antibiotic 40 ug/ml). Also, the P99A266C rate at P99A266C beta-lactamase (antibiotic 5 ug/ml) is 8.3 mUAbs/min; at P99A266C beta-lactamase (antibiotic 10 ug/ml), 6.1 mUAbs/min; on P99A266C beta-lactamase (antibiotic 20 ug/ml), 3.8 mUAbs/min; at P99A266C beta-lactamase (antibiotic 40 ug/ml) it was 2.5 mUAbs/min.

`O=C(Cc1cccs1)N[C@@H]1C(=O)N2C(C(=O)O)=C(/C=C/c3ccc([N+](=O)[O-])cc3[N+](=O)[O-])CS[C@H]12` [Nitrocefin]: the kcat in assay [1] is 1240 s⁻¹; in [2], 490 s⁻¹; in assay [3], 330 s⁻¹; in assay [4], 780 s⁻¹; in assay [5] it was 780 s⁻¹; in assay [6] it was 742 s⁻¹. For the same compound, the Km in assay [1] is 40 µM; in assay [4], 23 µM; in assay [5] (read-out: Km) it was 25 µM; in [6], 27 µM.
